Data taken from US5559028A, “Methods of enhancing or antigen presentation to T cells inhibiting” (Antigen Express, Inc., priority 1993, dated 1996).
Where no end group is shown, it is not given here.

How the values were obtained:
cathepsin B = cathepsin B (Homo sapiens, UniProt P07858); conditions: cited from earlier work
cathepsin D [1] = molecular target: cathepsin D (Homo sapiens, UniProt P07339); conditions: cited from earlier work
Ii = conditions: cited from earlier work
[2] = tested on: E^k -restricted murine T cell hybridoma, TPc9.1; assay: Enhancement of presentation of pigeon cytochrome C(81-104) by fixed CH27 cells to TPc9.1 T hybridoma (IL-2/IL-4, HT-2 indicator); format: cell-based
Procedure: The assay was carried out as follows. 5×10^4 paraformaldehyde-fixed CH27 B lymphoma cells (antigen presenting cells) were incubated in 96-well plates with 5×10^4 TPc9.1 T hybridoma cells (irradiated 2200 rads) for 24 hrs in the presence of: no peptides, 50 μM Ii peptide only, 6 μM pigeon cytochrome C(81-104) peptide only, and 50 μM Ii peptide plus 6 μM pigeon cytochrome C(81-104) peptide. Each condition was assayed in sextuplet. After incubation, the response of the T cell hybridoma was determined by measuring the IL-2/IL-4 secreted during the 24 hr culture. The supernatants were collected and were tested for IL-2/IL-4 content by the ability to support the growth of the IL-2/ IL-4-dependent cell line HT-2 as measured by [^3 H]thymidine incorporation. The values presented in Table V are the CPM×10^-3 incorporated in the HT-2 indicator assay.
The enhancement of responses to pigeon cytochrome C peptide (81-104) by Ii (148-164) and Ii (78-92) was assayed as a function of concentration of the added Ii peptide (Table VI). The values in the Table represent the % enhancement of the pigeon cytochrome C(81-104) peptide-specific, E^k -restricted response by the TPc9.1 murine T cell hybridoma (T) to the peptide presented by paraformaldehyde-fixed CH27 B lymphoma cells (APC). Culture supernatants were collected and were tested for IL-2/IL-4 content by the ability to support the growth of the Il-2/IL-4-dependent cell Line HT-2 as measured by the incorporation of [^3 H]thymidine. The % enhancement was calculated as: [(CPM of T+APC+peptide+Ii peptide / CPM of T+APC+peptide)×100]-100.

cathepsin D [3] = assay: Cathepsin D digestion of wild type and mutant Ii in trimers with HLA-DR1 α,β chains (SDS-PAGE of fragments); format: biochemical; conditions: pH 5.0, 30 min, room temperature, Jesthom microsomal membrane proteins
Procedure: The lowest level of cathepsin D seen to cleave Ii was 0.1 U/ml. Solubilized microsomal membrane proteins from [^35 S]methionine-labeled Jesthom cells were treated with the cathepsin D (concentrations 0, 0.01, 0.05, 0.1, 0.5, 2.5, 10.0 U/ml) at pH 5.0 for 30 min at room temperature. At the end of the incubation, the enzyme was inactivated and immunoprecipitates with anti-class II mAb, IVA12 or with anti-Ii mAb, VIC-Y1 were formed. The immunoprecipitated samples were analyzed by SDS-PAGE and autoradiography. In a second experiment, when the lowest level of cathepsin D (0.1 U/ml) seen to cleave Ii was added to the assay for peptide binding in the presence of varying concentrations of cathepsin B (0.02-0.5 U/ml), the net level of peptide binding was enhanced about 3 times that seen without cathepsin D, as judged by densitometry of the autoradiographs. For this experiment iodinated HSAB-MA(18-29) peptide and unradiolabeled microsomal membranes were incubated with or without 0.1 U/ml cathepsin D for 10 min or 30 min in the presence of varying amounts of cathepsin B (0.02, 0.1, or 0.5 U/ml). After subsequent photoactivation and immunoprecipitation with anti-class II mAb, the samples were subjected to SDS-PAGE and autoradiography.
CD digestions were carried out according to Reyes et al. (1991). […]

cathepsin D (Homo sapiens, UniProt P07339), sequence (P07339 65-412, species assumed): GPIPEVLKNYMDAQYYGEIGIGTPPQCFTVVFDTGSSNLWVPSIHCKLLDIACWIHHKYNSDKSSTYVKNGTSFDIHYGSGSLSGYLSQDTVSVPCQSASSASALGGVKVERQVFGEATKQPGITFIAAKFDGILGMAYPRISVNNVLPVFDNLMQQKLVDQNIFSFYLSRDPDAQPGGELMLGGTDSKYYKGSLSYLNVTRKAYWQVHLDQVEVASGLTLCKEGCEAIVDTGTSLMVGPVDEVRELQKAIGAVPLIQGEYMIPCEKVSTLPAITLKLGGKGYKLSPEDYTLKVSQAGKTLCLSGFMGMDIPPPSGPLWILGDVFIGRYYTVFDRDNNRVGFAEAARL

CC(=O)N[C@@H](CC(C)C)C(=O)N[C@@H](CC(C)C)C(=O)N[C@H](C=O)CCCNC(=N)N [leupeptin]
inhibition of cathepsin B (cathepsin B): inhibited | inhibition of cathepsin D (cathepsin D [1]): not | antigen charging in vitro (Ii): blocks antigen charging in vitro | final proteolysis of Ii (Ii): limits the final proteolysis of Ii to p21 and p14 fragments

ENLRHLKNTMETLDWKV [Ii (148-164), ENLRHLKNTMETLDWKV]
% enhancement of the pigeon cytochrome C(81-104) peptide-specific response ([2]; Ii peptide 1 μM): 0% | % enhancement of the pigeon cytochrome C(81-104) peptide-specific response ([2]; Ii peptide 10 μM): 19% | % enhancement of the pigeon cytochrome C(81-104) peptide-specific response ([2]; Ii peptide 50 μM): 91% | % enhancement of the pigeon cytochrome C(81-104) peptide-specific response ([2]; Ii peptide 100 μM): 140%

YRMKLPKPPKPVSKMR [Ii (78-92), YRMKLPKPPKPVSKMR]
% enhancement of the pigeon cytochrome C(81-104) peptide-specific response ([2]; Ii peptide 1 μM): 40% | % enhancement of the pigeon cytochrome C(81-104) peptide-specific response ([2]; Ii peptide 10 μM): 101% | % enhancement of the pigeon cytochrome C(81-104) peptide-specific response ([2]; Ii peptide 50 μM): 187% | % enhancement of the pigeon cytochrome C(81-104) peptide-specific response ([2]; Ii peptide 100 μM): 170%

cathepsin D: aspartyl protease
lowest level of cathepsin D seen to cleave Ii (cathepsin D [3]): 0.1 U/ml
